Data: patent US7923450B2, “Modulators for amyloid beta” (Hoffmann-La Roche Inc., priority 2008, dated 2011)

Tests used:
γ-secretase = assay: Cellular γ-secretase assay (Aβ42 secretion); assay type: cell-based; settings: inhibition of Aβ42 secretion; human neuroglioma H4 cells overexpressing human APP; 22 hrs incubation; read-out: EC50 in vitro
Protocol: Cellular γ-Secretase Assay
Human neuroglioma H4 cells overexpressing human APP were plated at 30,000 cells/well/200 μl in 96-well plates in IMDM media containing 10% FCS, 0.2 mg/l Hygromycin B and incubated for 2 h at 37° C., 5% CO2 prior to adding test compounds.
Compounds for testing were dissolved in 100% Me2SO yielding in a 10 mM stock solution. Typically 12 μl of these solutions were further diluted in 1000 μl of IMDM media (w/o FCS,). Sub sequential 1:1 dilutions gave a ten point dose response curve. 100 μl of each dilution was added to the cells in 96-well plates. Appropriate controls using vehicle only and reference compound were applied to this assay. The final concentration of Me2SO was 0.4%.
After incubation for 22 hrs at 37° C., 5% CO2, 50 μl supernatant was transferred into round-bottom 96-well polypropylene plates for detection of Aβ42. 50 μl assay buffer (50 mM Tris/Cl, pH 7.4, 60 mM NaCl, 0.5% BSA, 1% TWEEN 20) was added to the wells followed by the addition of 100 μl of detection antibody (ruthenylated Aβ42-specific antibody BAP15 0.0625 μg/mL in assay buffer). 50 μl of a premix of capture antibody (biotinylated 6E10 antibody, 1 μg/mL) and Steptavidin-coated magnetic beads (Dynal M-280, 0.125 mg/mL) were preincubated for 1 hr at room temperature before adding the assay plates. Assay plates were incubated on a shaker for 3 hrs at room temperature and finally read in the Bioveris M8 Analyser according to the manufacturer's instructions (Bioveris).
EC50 values for inhibition of Aβ42 secretion were calculated by nonlinear regression fit analysis using XLfit 4.0 software (IDBS).

EC50 (γ-secretase)	melting point	SMILES
340 nM	227 to 230 °C	COc1ccccc1C1CCCc2sc(Nc3ccc(-n4cnc(C)c4)c(F)c3)nc21 (centres unmarked) [Example 35, [3-Fluoro-4-(4-methyl-imidazol-1-yl)-phenyl]-[4-(2-methoxy-phenyl)-4,5,6,7-tetrahydro-benzothiazol-2-yl]-amine]
430 nM	204 to 206 °C	Cc1cn(-c2ccc(Nc3nc4c(s3)CCCC4c3ccccc3Cl)cc2F)cn1 (centres unmarked) [Example 33, [4-(2-Chloro-phenyl)-4,5,6,7-tetrahydro-benzothiazol-2-yl]-[3-fluoro-4-(4-methyl-imidazol-1-yl)-phenyl]-amine]
300 nM	123 to 126 °C	COc1cc(Nc2nc3c(s2)CCCC3(C)c2ccccc2)ccc1-n1cnc(C)c1 (centres unmarked) [Example 30, [3-Methoxy-4-(4-methyl-imidazol-1-yl)-phenyl]-(4-methyl-4-phenyl-4,5,6,7-tetrahydro-benzothiazol-2-yl)-amine]
500 nM	201 to 203 °C	Cc1cn(-c2ccc(Nc3ncc4c(n3)C(c3ccc(F)cc3)CCC4)cc2F)cn1 (centres unmarked) [Example 60, [3-Fluoro-4-(4-methyl-imidazol-1-yl)-phenyl]-[8-(4-fluoro-phenyl)-5,6,7,8-tetrahydro-quinazolin-2-yl]-amine]
260 nM	160 to 163 °C	Cc1cn(-c2ccc(Nc3nc4c(s3)CCCC4c3ccc(C)c(C(F)(F)F)c3)cc2F)cn1 (centres unmarked) [Example 32, [3-Fluoro-4-(4-methyl-imidazol-1-yl)-phenyl]-[4-(4-methyl-3-trifluoromethyl-phenyl)-4,5,6,7-tetrahydro-benzothiazol-2-yl]-amine]
460 nM	136 to 139 °C	Cc1cn(-c2ccc(Nc3nc4c(s3)CCCC4c3ccc(Cl)cc3Cl)cc2F)cn1 (centres unmarked) [Example 36, [4-(2,4-Dichloro-phenyl)-4,5,6,7-tetrahydro-benzothiazol-2-yl]-[3-fluoro-4-(4-methyl-imidazol-1-yl)-phenyl]-amine]
380 nM	210 to 212 °C	COc1cc(Nc2ncc3c(n2)C(c2ccc(Cl)cc2)CCC3)ccc1-n1cnc(C)c1 (centres unmarked) [Example 50, [8-(4-Chloro-phenyl)-5,6,7,8-tetrahydro-quinazolin-2-yl]-[3-methoxy-4-(4-methyl-imidazol-1-yl)-phenyl]-amine]
